Patent publication US20240300945A1, “CLY SERIES COMPOUND, PREPARATION METHOD THEREFOR AND USE THEREOF IN PREPARATION OF DRUGS” (NANJING WELLBEST PHARMACEUTICAL CO., LTD, priority 2021, published 2024)
Marks after values point to notes of the source that are not given here.

Columns and labels:
rabbit ear acne model [1] = assay: Rabbit ear acne model: epidermal thickness, hair follicle area, sebaceous gland diameter; format: in vivo, New Zealand rabbits; conditions: rabbit right ear
Description: (§1) New Zealand rabbits were, according to weights, randomly divided into the model control group (applied cream matrix), positive treatment group (applied Differin on the skin), CLY-1 external treatment group (0.25% CLY-1 cream on the skin), CLY-2 external treatment group (0.25% CLY-2 cream on the skin), CLY-3 external treatment group (0.25% CLY-3 cream on the skin), CLY-4 external treatment group (0.25% CLY-4 cream on the skin) CLY-8 external treatment group (0.25% CLY-8 cream on the skin), CLY-9 external treatment group (0.25% CLY-9 cream on the skin), CLY-11 external treatment group (0.25% CLY-11 cream on the skin), CLY-19 external treatment group (0.25% CLY-19 cream on the skin), CLY-36 external treatment group (0.25% CLY-36 cream on the skin); CLY-1 intravenous injection group (1 mg/kg·d), CLY-2 intravenous injection group (1 mg/kg·d), CLY-3 intravenous injection group (1 mg/kg·d), CLY-4 intravenous injection group (1 mg/kg·d), CLY-8 intravenous injection group (1 mg/kg·d), CLY-9 intravenous injection group (1 mg/kg·d), CLY-11 intravenous injection group (1 mg/kg·d), CLY-19 intravenous injection group (1 mg/kg·d), and CLY-36 intravenous injection group (1 mg/kg·d), with 10 in each group. Took the inner side of the rabbit's right ear for depilation treatment as the observation area, and the inner side of the left ear of all rabbits as their own negative control, and applied 95% alcohol. The inner side of the right ear of the model group and the treatment group were both coated with 2% coal tar (Alfa Aesar China, which used 95% alcohol to prepare 2% coal tar solution), and evenly applied the sterile cotton swab to the opening of the ear duct on the inner side of the rabbit's ear within the range of about 2 cm×2 cm, once a day, 0.5 mL each time, and wiped the previous application site with warm water for 14 consecutive days to establish the acne micro-pigmentation model. Visually observed the changes of local skin, including ear thickness, hardness, roughness, and whether there was a black angle plug at the hair follicle mouth. 18 hours after the last application, the sample was sacrificed and skin was taken. The skin tissue was taken from the application site by using a 5 mm punch, fixed with 10% formaldehyde, embedded in paraffin, and stained with HE. The histopathological observation and analysis were carried out.
The histopathological changes were observed under the microscope, and the thickness of five different epidermises on a slice was measured with the Biomias99 image analysis system, and the average value was calculated; Detected the area of the two hair follicles and the diameter of the four sebaceous glands with the same position and the most complete structure in the four sections, calculated their average values, and then subtracted the data of the left and right external auditory canal of the rabbits in each group to obtain the difference in the thickness of the left and right ear epidermis, the difference in the area of the hair follicles and the difference in the diameter of the sebaceous glands.
(§2) SPSS16 software was used for statistical analysis. The paired t-test was used for the left and right self-contrast, and the t-test was used for the comparison between the groups, P<0.05 was statistically significant.

rabbit ear acne model [2] = assay: Rabbit ear acne model: macroscopic observation and histological grading; format: in vivo, New Zealand rabbits; conditions: right ear, 10 per group; for number of rabbits with acne histological grading 2+: Grade 2; for number of rabbits with acne histological grading —: Level 0, without acne; for number of rabbits with acne histological grading 1+: Level 1; for number of rabbits with acne histological grading 3+: Level 3
Description: (§3) (1) Preparation method of treatment cream: The excipient matrix components included methyl silicone oil (15%), stearic acid (6%), white vaseline (5%), liquid paraffin (5%), octadecanol (5%), glycerin (20%), alkyl aryl polyglycol ether (1%), fatty alcohol polyoxyethylene ether (1%), […] (1%), ethyl paraben (0.1%), distilled water (about 31-55%), and mixed with appropriate amount of CLY series compounds to form a mixed emulsion. The emulsion matrix used in this embodiment refers to the matrix component after the active ingredient was removed from the emulsion.
(2) Positive therapeutic drug: 0.1% adapalene gel (Trade name: Differin, produced by Laboratoires Galderma, France).
as §1
The histological grading criteria of the acne model: 3 grades according to histological grade. […] The tight keratin embolism in the hair follicles causes severe expansion of the hair follicles, obvious hyperplasia of the sebaceous duct epithelium, skin bulges and scars, and some sebaceous glands degenerate “3±”.
as §2

rat scar model = assay: Rat scar model (skin wound healing); format: in vivo; conditions: rat back wound 2.4 cm; 0.5% cream on the skin
Description: as §3, with “1.1” for “(1)”, “alkylaryl” for “alkyl aryl”
1.2 Grouping and modeling of experimental animals: SPF grade male rats, weighing (210±28) g, from the Animal Center of Nanyi University. The rats were numbered according to their body weight and using the random array method, samples were divided into the model control group (applied cream matrix), CLY-1 treatment group (applied 0.5% CLY-1 cream on the skin), CLY-2 treatment group (applied 0.5% CLY-2 cream on the skin), CLY-3 treatment group (0.5% CLY-3 cream on the skin), CLY-4 treatment group (0.5% CLY-4 cream on the skin), CLY-8 treatment group (0.5% CLY-8 cream on the skin), CLY-11 treatment group (0.5% CLY-11 cream on the skin) CLY-19 treatment group (0.5% CLY-19 cream on the skin), CLY-36 treatment group (0.5% CLY-36 cream on the skin), and CLY-39 treatment group (0.5% CLY-39 cream on the skin), 6 in each group. Rats in each group were anesthetized by intraperitoneal injection of 2% pentobarbital sodium (120 mg/kg) and fixed on the operating table, and then chose a piece of 4×5 cm of intact skin on the back, 8% sodium sulfide hair removal, used tissue scissors to cut a wound with a diameter of 2.4 cm and a depth of muscle fascia at the hair removal site, and damage part of the muscle surface fascia. Animals were kept in separate cages to prevent rats from biting and licking. Applied 2% iodine tincture daily to the wound for routine disinfection, and observed the wound healing of rats.
The wounds were routinely disinfected every day, and the wounds of rats were observed on the 1st, 3rd, 5th, 7th, 12th, and 20th days. […] On the 12th day, the wounds in each treatment group had basically recovered, while the model group still had about 0.5 cm2 of wounds. By the 20th day, the wounds in each group had recovered, and the model control group left obvious scars, while each treatment group only left different amounts of pigmentation.

[3] = external use (0.25% CLY cream; positive: Differin)
[4] = intravenous injection 1 mg/kg·d

Row | Compound | epidermal thickness (rabbit ear acne model [1]; [3]) | hair follicle area (rabbit ear acne model [1]; [3]) | sebaceous gland diameter (rabbit ear acne model [1]; [3]) | epidermal thickness (rabbit ear acne model [1]; [4]) | hair follicle area (rabbit ear acne model [1]; [4]) | sebaceous gland diameter (rabbit ear acne model [1]; [4]) | number of rabbits with acne histological grading 2+ (rabbit ear acne model [2]; [3]) | number of rabbits with acne histological grading 2+ (rabbit ear acne model [2]; [4]) | number of rabbits with acne histological grading — (rabbit ear acne model [2]; [3]) | number of rabbits with acne histological grading — (rabbit ear acne model [2]; [4]) | number of rabbits with acne histological grading 1+ (rabbit ear acne model [2]; [3]) | number of rabbits with acne histological grading 1+ (rabbit ear acne model [2]; [4]) | number of rabbits with acne histological grading 3+ (rabbit ear acne model [2]; [3]) | number of rabbits with acne histological grading 3+ (rabbit ear acne model [2]; [4]) | skin wound healing and scar formation (rat scar model)
1 | CNC1CCCC(N(C(=O)c2ccc(-n3nnc4cccnc43)cc2)c2ncccc2Cl)C1 (stereo not drawn) [CLY-3] | 0.2385 ± 0.0198 mm | 0.2923 ± 0.0987* mm^2 | 0.0837 ± 0.0412 mm | 0.2316 ± 0.0196 mm | 0.2287 ± 0.0883* mm^2 | 0.0575 ± 0.0354 mm | 2 | 2 | 4 | 6 | 4 | 2 | 0 | 0 | significantly promote skin wound healing and reduce scar formation
2 | Nc1ccccc1-c1ccc(C(=O)N(c2ncccc2Cl)[C@@H]2CCCNC2)cc1 [CLY-39] | 0.2312 ± 0.0152 mm | 0.2315 ± 0.0662* mm^2 | 0.0716 ± 0.0323 mm | 0.2056 ± 0.0156 mm | 0.2056 ± 0.0762* mm^2 | 0.0531 ± 0.0306 mm | 1 | 1 | 6 | 7 | 3 | 2 | 0 | 0 | significantly promote skin wound healing and reduce scar formation
3 | O=C(c1ccc(-c2ccccc2-c2nnn[nH]2)cc1)N(c1ncccc1Cl)[C@@H]1CCCNC1 [CLY-19] | 0.2365 ± 0.0181 mm | 0.2766 ± 0.0953* mm^2 | 0.0795 ± 0.0398 mm | 0.2276 ± 0.0165 mm | 0.2235 ± 0.0843* mm^2 | 0.0523 ± 0.0316 mm | 3 | 1 | 5 | 8 | 2 | 1 | 0 | 0 | significantly promote skin wound healing and reduce scar formation
4 | O=C(c1ccc(-n2nnc3cccnc32)cc1)N(c1ncccc1Cl)[C@@H]1CCNC1 [CLY-8, (R)-4-(3H-[1,2,3]triazolo[4,5-b]pyridin-3-yl)-N-(3-chloropyridin-2-yl)-N-(pyrrolidin-3-yl)benzamide] | 0.2237 ± 0.0168 mm | 0.2115 ± 0.0832* mm^2 | 0.0663 ± 0.0307 mm | 0.1843 ± 0.0156 mm | 0.1845 ± 0.0653* mm^2 | 0.0572 ± 0.0289 mm | 1 | 0 | 8 | 9 | 1 | 1 | 0 | 0 | significantly promote skin wound healing and reduce scar formation
5 | NC1CCCC(N(C(=O)c2ccc(-n3nnc4cccnc43)cc2)c2ncccc2Cl)C1 (stereo not drawn) [CLY-11] | 0.2372 ± 0.0176 mm | 0.2745 ± 0.0946* mm^2 | 0.0786 ± 0.0392 mm | 0.2295 ± 0.0173 mm | 0.2246 ± 0.0856* mm^2 | 0.0552 ± 0.0325 mm | 2 | 1 | 5 | 7 | 3 | 2 | 0 | 0 | significantly promote skin wound healing and reduce scar formation
